In patent US20180360972A1, “THERAPEUTIC COMPOUNDS” (REGENTS OF THE UNIVERSITY OF MINNESOTA, priority 2017, published 2018):

Assays:
[1] = target: mMC4R-NanoLuc and mMC4R-HaloTag homodimer (Mus musculus, UniProt P56450); experiment: NanoBRET ligand-dependent modulation of BRET signal; details: for change in BRET signal (in words): 10^−5, 10^−7 and 10^−9 M vs assay buffer; for reduction in BRET signal compared to basal signal: ligand at 10 μM
Protocol: On the first day, cells were plated into 6 well plates in the morning. In the afternoon of the same day, cells were transiently transfected with mMC4R-NanoLuc® fusion protein and the MC4R-HaloTag® fusion protein by adding FuGene6 Transfection (8 μL/well, Promega), DNA (2 μg/well) in OptiMem medium (Invitrogen) at a total volume of 100 μL/well. […] Cells were incubated with transfection reagent overnight at 5% CO2 at 37° C.
This provides the background signal and was subtracted from the final experimental signal. Plates were then developed 48 to 60 hours after transfection. Two hours before the plates were developed, 10 μL of a 10× aliquot of the ligand diluted in assay buffer was added to each well to yield the final in well concentration (10^−5, 10^−7, or 10^−9M) of each compound. For the assay buffer control, 10 μL of assay buffer was added instead of compound. […] The standard error of the mean (SEM) was derived from at least three independent experiments.

hMC4R = target: T1, hMC4R (Homo sapiens, UniProt P32245); experiment: AlphaScreen cAMP functional bioassay, hMC4R; assay type: cell-based; details: HEK293 cells stably expressing hMC4R
T1 construct: Flag; expressed in transfected cells
T1 sequence (P32245 whole entry): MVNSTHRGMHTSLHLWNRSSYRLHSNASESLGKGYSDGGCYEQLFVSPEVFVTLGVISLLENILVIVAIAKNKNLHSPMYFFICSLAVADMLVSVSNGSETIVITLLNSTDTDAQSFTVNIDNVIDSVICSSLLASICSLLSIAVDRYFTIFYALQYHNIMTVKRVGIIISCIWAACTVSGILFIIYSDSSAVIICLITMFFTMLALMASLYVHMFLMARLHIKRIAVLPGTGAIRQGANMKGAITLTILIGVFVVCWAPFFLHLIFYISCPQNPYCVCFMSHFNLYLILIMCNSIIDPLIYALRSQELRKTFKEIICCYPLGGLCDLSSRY
Protocol: Upon agonist stimulation, melanocortin receptors are known to signal through a Gαs-protein mediated signaling pathway that results in intracellular cAMP accumulation.
Stable populations were selected for using G418 selection (0.7-1.0 mg/mL) and used in bioassays unless indicated otherwise. In vitro experimental ligands were dissolved to a 10^−2 M stock in DMSO and stored at −20° C. Subsequent dilutions were performed in each assay's specific buffer to achieve the final concentration in the well. The ligands were assayed as TFA salts.
AlphaScreen cAMP Functional Bioassay
The AlphaScreen® assay was performed as described by manufacturer.
Cells were removed from plates using Gibco® Versene solution and pelleted by centrifugation (Sorvall Super T21 high speed centrifuge, swinging bucket rotor) at 800 rpm for five minutes. […] A 10 μL aliquot of cell suspension was counted manually using a hemocytometer after addition of Trypan blue dye (BioRad). Cells were again pelleted by centrifugation, and DPBS was gently aspirated. The pelleted cells were then resuspended in a solution of freshly made stimulation buffer (Hank's Balanced Salt Solution [HBSS 10× [−] sodium bicarbonate] and [−] phenol red, Gibco®], 0.5 mM isobutylmethylxanthine [IBMX], 5 mM HEPES buffer solution [1M, Gibco®], 0.1% bovine serum albumin [BSA] in Milli-Q water, pH=7.4) and anti-cAMP acceptor beads (1.0 unit per well, AlphaScreen®). […] The cells were then stimulated with ligand diluted in stimulation buffer to achieve their final concentrations in the well ranging from 10^−13 to 10^−4 M. The stimulated plates were incubated in a dark laboratory drawer at room temperature for two hours.
Meanwhile, a biotinylated cAMP/streptavidin donor bead working solution was made by adding biotinylated cAMP (1 Unit/well, AlphaScreen®) and streptavidin donor beads (1 Unit/well, AlphaScreen®) to a lysis buffer (10% Tween-20, 5 mM HEPES buffer solution [1M, Gibco®], 0.1% bovine serum albumin [BSA] in Milli-Q water, pH=7.4). After the two hour stimulation, the biotinylated cAMP/Streptavidin donor bead working solution was added to each well under green light and mixed well by pipetting up and down. The cells were incubated for another two hours at room temperature in a dark drawer at room temperature. The plate was then read on an EnSpire™ Alpha plate reader using a pre-normalized assay protocol set by the manufacturer. Assays were performed with duplicate data points on each plate and repeated in at least three independent experiments.
Dose response curves were analyzed using the PRISM program (v4.0; GraphPad Inc.).

mMC4R-NanoLuc and mMC4R-HaloTag homodimer, sequence (P56450 whole entry): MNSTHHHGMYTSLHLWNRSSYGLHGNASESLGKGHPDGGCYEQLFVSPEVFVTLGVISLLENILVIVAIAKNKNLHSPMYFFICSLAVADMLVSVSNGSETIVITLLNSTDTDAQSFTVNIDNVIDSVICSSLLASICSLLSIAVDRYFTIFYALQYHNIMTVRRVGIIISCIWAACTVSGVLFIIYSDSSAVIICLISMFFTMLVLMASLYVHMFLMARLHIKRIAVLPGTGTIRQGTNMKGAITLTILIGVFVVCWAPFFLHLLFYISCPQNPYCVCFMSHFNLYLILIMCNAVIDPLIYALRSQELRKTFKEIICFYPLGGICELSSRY
mMC4R-NanoLuc and mMC4R-HaloTag homodimer, sequence (P56450 whole entry): as above

change in BRET signal (in words) [1]	reduction in BRET signal compared to basal signal [1]	cAMP agonist potency (in words) (hMC4R)	Compound
dose dependent decrease in BRET signal	15%	–	Ac-His-DPhe-Arg-Trp-NH2 [CJL-1-14]
–	–	single digit nanomolar agonists	Ac-His-DNal(2′)-Arg-Trp-(PEDG20)-(PEDG20)-His-DPhe-Arg-Trp-NH2 [CJL-5-74, MUmBL; linker assigned from order of b161-b164 and b248]
dose dependent decrease in BRET signal	15%	–	α-MSH

Compound	change in BRET signal (in words) [1]	reduction in BRET signal compared to basal signal [1]	cAMP agonist potency (in words) (hMC4R)
CC(=O)N[C@@H](Cc1c[nH]cn1)C(=O)N[C@H](Cc1ccccc1)C(=O)N[C@@H](CCCNC(=N)N)C(=O)N[C@@H](Cc1c[nH]c2ccccc12)C(=O)NCCCOCCOCCOCCCNC(=O)COCC(=O)N[C@@H](Cc1c[nH]cn1)C(=O)N[C@H](Cc1ccccc1)C(=O)N[C@@H](CCCNC(=N)N)C(=O)N[C@@H](Cc1c[nH]c2ccccc12)C(N)=O [CJL-1-87]	–	~15%	–
